Source: PMC4921915 (Scientific Reports, 2016)

Target: T1, α1β3 GABAA receptor, 3α1:2β3 stoichiometry (α1 + β3, 30:1) (Homo sapiens, UniProt P14867+P28472)
T1 construct: gene GABRA1; full-length free subunits, cRNA ratio α1:β3 30:1, Xenopus laevis oocytes; heteropentamer; 'Human' printed for α1 and γ2, β3 implied by same sentence
T1 sequence (P14867 28-456): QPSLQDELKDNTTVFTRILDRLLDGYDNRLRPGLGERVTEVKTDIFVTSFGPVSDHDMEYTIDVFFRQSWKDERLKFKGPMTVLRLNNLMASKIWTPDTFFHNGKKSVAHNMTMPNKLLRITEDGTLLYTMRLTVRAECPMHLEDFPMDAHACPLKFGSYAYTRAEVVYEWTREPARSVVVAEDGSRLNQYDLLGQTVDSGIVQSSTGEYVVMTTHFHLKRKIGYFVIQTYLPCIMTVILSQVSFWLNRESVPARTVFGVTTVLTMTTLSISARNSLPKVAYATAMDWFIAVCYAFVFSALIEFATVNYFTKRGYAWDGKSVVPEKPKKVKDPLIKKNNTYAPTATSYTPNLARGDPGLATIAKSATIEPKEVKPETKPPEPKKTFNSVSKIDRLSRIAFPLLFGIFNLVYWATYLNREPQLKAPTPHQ
T1 sequence (P28472 26-473): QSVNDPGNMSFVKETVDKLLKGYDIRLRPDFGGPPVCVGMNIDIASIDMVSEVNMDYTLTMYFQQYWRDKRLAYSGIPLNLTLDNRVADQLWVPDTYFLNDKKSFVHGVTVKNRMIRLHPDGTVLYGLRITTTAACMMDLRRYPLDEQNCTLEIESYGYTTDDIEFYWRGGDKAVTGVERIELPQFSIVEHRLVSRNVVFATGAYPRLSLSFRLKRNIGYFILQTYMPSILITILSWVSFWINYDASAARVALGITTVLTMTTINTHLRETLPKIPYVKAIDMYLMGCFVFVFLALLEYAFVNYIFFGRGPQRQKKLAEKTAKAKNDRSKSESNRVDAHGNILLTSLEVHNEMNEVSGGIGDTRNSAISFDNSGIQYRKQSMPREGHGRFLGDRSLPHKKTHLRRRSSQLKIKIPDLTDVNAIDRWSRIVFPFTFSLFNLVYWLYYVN
Experiment: two-electrode voltage clamp, Xenopus oocytes
Type: cell-based
Conditions: read-out: % inhibition at 1 μM

SMILES: CCOC(=O)c1ncn2c1CN(C)C(=O)c1cc(F)ccc1-2 [flumazenil, Ethyl 8-fluoro-5-methyl-6-oxo-5,6-dihydro-4H-benzo[f]imidazo[1,5-a][1,4]diazepine-3-carboxylate]
- inhibition at 1 µM: 95%
